Experimental data reported in patent US6596701B1, “S-adenosyl methionine regulation of metabolic pathways and its use in diagnosis and therapy” (MediQuest Therapeutics, Inc., priority 1995, dated 2003).
Where two headings read alike, the source gives them in different places.

Columns and labels:
SAM concentrations = settings: Bacchi et al. 1987; cited from earlier work
[1] = tested on: gastric mucosal stress ulcers; settings: polyamine-stimulated healing, Wang et al.; cited from earlier work
puncture wounds = test: Mouse puncture wound model, Experiment 3 (about 6 mm wounds, wound area, varied compositions); format: in vivo; settings: comparison of Groups A-D, each compound 0.18 mg/ml
Procedure: This study was similar to Experiment 2, with the following changes. 1. […] 2. […] 3. Test or control compositions were applied daily. Compounds in each test composition were varied 4. N=10 mice per group 5. The each compound in the test compositions was present at a concentration of 0.18 mg/ml. [table]

[2] = target: methyl transferase which acts on MBP; settings: methyl transferase with subunits of 75 and 100 kDa; cited from earlier work
[3] = cited from earlier work
LDHκ = LDHκ activity in HeLa cell extracts with SAM added; format: biochemical, human; settings: addition of SAM to the assay mixture
AD patients = settings: Cohen et al. 1988; cited from earlier work
[4] = tested on: RNA polymerase II and synthesis of RNA; settings: biotin-deficient rats, within 2 hours after injection of biotin; cited from earlier work
3T3 cells = settings: cited from earlier work
cultured rat hepatocytes = settings: within 6 hours, cited from earlier work
[5] = tested on: genetically diabetic mice; settings: Reddi et al. 1988; cited from earlier work
RSV-infected cells = settings: cited from earlier work
tumor [6] = settings: Briggs 1959; tumor size attained prior to treatment was not reduced; cited from earlier work
injured skin = settings: compared to injured skin of saline-treated controls, Smith et al. 1989; cited from earlier work
tumor [7] = settings: mouse model, cited from earlier work
tRNA in tumor cells = settings: tumor-bearing mice; cited from earlier work

NCCCC(N)(C(=O)O)C(F)F (racemic) [DL-α-difluoromethylornithine]
increase SAM concentrations (SAM concentrations): ≤ 48 fold
healing process of gastric mucosal stress ulcers [1]: significantly inhibited

NC1(C(=O)O)CC1 [ACC, 1-aminocyclopropanecarboxylic acid]
synergy in promoting wound healing (puncture wounds): act synergistically in promoting wound healing

Nc1ncnc2c1ncn2[C@@H]1O[C@H](CSCC[C@H](N)C(=O)O)[C@@H](O)[C@H]1O [SAH, S-adenosyl-L-homocysteine]
Ki [2]: 1 µM

C[S+](CC[C@H](N)C(=O)O)C[C@H]1O[C@@H](n2cnc3c(N)ncnc32)[C@H](O)[C@@H]1O.C[S+](CC[C@H](N)C(=O)O)C[C@H]1O[C@@H](n2cnc3c(N)ncnc32)[C@H](O)[C@@H]1O.O=S(=O)([O-])[O-] (stereo partly drawn) [SAM sulfate]
stable for ([3]; 4° C.): 6 months

C[S+](CC[C@H](N)C(=O)O)C[C@H]1O[C@@H](n2cnc3c(N)ncnc32)[C@H](O)[C@@H]1O (stereo partly drawn) [SAM, S-adenosyl-L-methionine]
increase in activity of LDHκ (LDHκ): 8-10 fold
membrane fluidity (AD patients): increased of membrane fluidity
symptoms (AD patients): no improvement nor worsening of symptoms

O=C(O)CCCC[C@@H]1SC[C@@H]2NC(=O)N[C@@H]21 [biotin]
synergy in promoting wound healing (puncture wounds): act synergistically in promoting wound healing
increase in RNA polymerase II [4]: 2 fold
increase in the synthesis of RNA [4]: 2 fold
GAPDH increased (3T3 cells; differentiation with biotin): 8 fold
aldolase increased (3T3 cells; differentiation with biotin): 20-30 fold
glycerophosphate dehydrogenase increased (3T3 cells; differentiation with biotin): 2,000 fold
actin, % of total protein after treatment (3T3 cells; from 12.7% prior to treatment with biotin): 3.2 % of total protein
increase in glucokinase (cultured rat hepatocytes; required the presence of insulin): 4 fold
increase in cGMP (cultured rat hepatocytes): 3 fold
glucose and insulin tolerance [5]: improves glucose and insulin tolerance

C[S+](CC[C@H](N)C(=O)O)C[C@H]1O[C@@H](n2cnc3c(N)ncnc32)[C@H](O)[C@@H]1O.[Cl-] (stereo partly drawn) [chloride salt of SAM]
loss of activity per day ([3]; 25° C.): 10 % of activity per day

NC1(C(=O)O)CCCC1 [cycloleucine]
inhibition of cellular methylation (RSV-infected cells; RSV-infected cells, concentrations used): 95%
RSV-specific mRNAs found (RSV-infected cells; concentrations which inhibit 95% of cellular methylation): only the 35S viral mRNA is found

C[C@@H]1NC(=O)N[C@@H]1CCCCCC(=O)O [desthiobiotin, reference compound]
antitumor effects (tumor [6]): further tumor growth was prevented

NC(=O)c1cccnc1 [nicotinamide]
capillary density in injured skin (injured skin): increases the capillary density in injured skin significantly

Nc1nc2[nH]cc(CN[C@H]3C=C[C@H](O)[C@@H]3O)c2c(=O)[nH]1 [queuine]
effect on tumor (tumor [7]; Katze et al. 1980): shrinkage of the tumor
effect on tumor (tumor [7]; Nishimura et al. 1983, cancer of different type): no effect

Nc1nc2c(c(CN[C@H]3C=C[C@H](O)[C@@H]3O)cn2[C@@H]2O[C@H](CO)[C@@H](O)[C@H]2O)c(=O)[nH]1 [queuosine]
conversion of G-tRNA to QtRNA in tumor cells (tRNA in tumor cells): complete conversion

avidin: the biotin-binding protein avidin
antitumor effects (tumor [6]): further tumor growth was prevented
